Experimental data as given in patent US20160346289A1, “Fixed-Dose Combinations of Antiviral Compounds” (MERCK SHARP & DOHME CORP., priority 2014, published 2016).

Tests used:
[1] = Human pharmacokinetics of Formulation 3 with and without 20 mg famotidine; assay type: in vivo; settings: conventional formulation of Compound II
Experimental: The oral absorption obtained from Formulation 3 with and without pH-modifying medications (20 mg famotidine) was evaluated as part of human clinical study. For the treatment with famotidine, single oral doses of 20 mg famotidine (1×20 mg tablet) were administered on the previous evening and 2 hours prior to a single oral dose of Formulation 3.

[2] = Human pharmacokinetics of Formulation 4 with and without famotidine, co-dosed with Formulation 1; assay type: in vivo; settings: Compound II from Formulation 4 co-dosed with Formulation 1; healthy subjects
Experimental: For the treatment with famotidine, single oral doses of 20 mg famotidine (1×20 mg tablet) was administered 10 hours and 2 hours prior to an oral dose of Formulation 1 and Formulation 4.

[3] = Aqueous / pH-dependent solubility; assay type: physicochemical; settings: between pH 1-3

absorption upon co-administration with a pH-raising medication [1]: poor absorption | exposure following famotidine versus without famotidine [2]: comparable | pH-dependent solubility profile [3]: sharp pH-dependent solubility profile
SMILES: COC(=O)N[C@H](C(=O)N1CCC[C@H]1c1nc(-c2ccc3c(c2)O[C@@H](c2ccccc2)n2c-3cc3cc(-c4c[nH]c([C@@H]5CCCN5C(=O)[C@@H](NC(=O)OC)C(C)C)n4)ccc32)c[nH]1)C(C)C [Compound II, dimethyl N,N′-([(6S)-6-phenylindolo[1,2-c][1,3]benzoxazine-3,10-diyl]bis{1H-imidazole-5,2-diyl-(2S)-pyrrolidine-2,1-diyl[(2S)-3-methyl-1-oxobutane-1,2-diyl]})dicarbamate]
